Data on 15 molecules can be found in ChEMBL document CHEMBL5257035, “Nucleoside Derived Antibiotics to Fight Microbial Drug Resistance: New Utilities for an Established Class of Drugs?” (J Med Chem, 2016).

For orientation: MIC means the least concentration at which growth counts as inhibited. As usually defined, the Ki is the dissociation constant of the complex between target and ligand, obtained from inhibition or displacement. Usually IC50 stands for the midpoint of a concentration-inhibition curve. High values mean lower potency, low ones higher potency. The term inhibition denotes the change of the read-out against control, counted positive when it falls. A high value points to a strong effect. By ED50 is commonly meant the midpoint of the dose-response relation. Read a low ED50 as an effect at a small dose.

The subject of test [1] is Pseudomonas aeruginosa. Kind of test: Antimicrobial activity against Pseudomonas aeruginosa ATCC 27853 assessed as inhibition of microbial growth.
Test [2] in a line: Inhibition of Bacillus stearothermophilus tyrosyl tRNA synthetase. Also noted: species or system Geobacillus stearothermophilus.
The next test concerns Cryptococcus neoformans. Kind of test: Antifungal activity against Cryptococcus neoformans assessed as reduction in fungal growth. The test is classed as functional.
A further test concerns Aspergillus niger. Kind of test: Antifungal activity against Aspergillus niger MTCC 282 assessed as reduction in microbial growth measured after 48 hrs by broth dilution method. The test is classed as functional.
The next test relates to Coccidioides immitis. Kind of test: Antifungal activity against Coccidioides immitis assessed as reduction in fungal growth. The format is functional.
For test [3], the system named is Candida albicans. Kind of test: Antifungal activity against Candida albicans assessed as inhibition of fungal growth. The format is functional.
The target of test [4] is Phospho-N-acetylmuramoyl-pentapeptide-transferase (Bacillus subtilis (strain 168), UniProt Q03521). As to the kind of experiment: Inhibition of Bacillus subtilis MraY.
In test [5] the test system is Pseudomonas aeruginosa. As to the kind of experiment: Antibacterial activity against Pseudomonas aeruginosa assessed as bacterial growth reduction. The test is classed as functional.
Test [6] has as its system Pseudomonas aeruginosa. As to the kind of experiment: Antibacterial activity against Pseudomonas aeruginosa assessed as reduction in bacterial growth. The format is functional.
The next test concerns Staphylococcus aureus. As to the kind of experiment: Antibacterial activity against methicillin-resistant Staphylococcus aureus assessed as reduction in bacterial growth by broth dilution method. The format is functional. (In general: Dilution methods test growth across graded concentrations, often in twofold steps.)
Test [7] concerns the target Phospho-N-acetylmuramoyl-pentapeptide-transferase (Staphylococcus aureus, UniProt P0C1R8). As to the kind of experiment: Inhibition of Staphylococcus aureus MraY.
The target in test [8] is Phospho-N-acetylmuramoyl-pentapeptide-transferase (Bacillus subtilis (strain 168)) (UniProt Q03521). As to the kind of experiment: Inhibition of Bacillus subtilis MraY at 2.3 uM relative to control.
The target in a further test is Proline--tRNA ligase (Escherichia coli, UniProt P16659). Kind of test: Binding affinity to Escherichia coli K12 Prolyl-tRNA synthetase.
The test system of test [9] is Pseudomonas aeruginosa. As to the kind of experiment: Antibacterial activity against Pseudomonas aeruginosa ATCC 27853 assessed as bacterial growth inhibition at 32 ug/ml measured after 16 hrs by broth microdilution method. The test is classed as functional. As to conditions: dose 32 µg/ml.
Test [10] has as its target Phospho-N-acetylmuramoyl-pentapeptide-transferase (Bacillus subtilis (strain 168)) (UniProt Q03521). Kind of test: Inhibition of Bacillus subtilis MraY at 11.4 uM relative to control.
Another test deals with Escherichia coli. As to the kind of experiment: Antibacterial activity against Escherichia coli K12 assessed as bacterial growth inhibition by broth microdilution method. The format is functional.
For test [11], the system named is Candida albicans. Kind of test: Antifungal activity against wild type Candida albicans. The test is classed as functional.
Test [12] deals with T1, Phospho-N-acetylmuramoyl-pentapeptide-transferase (Escherichia coli, UniProt E2QF15).
T1 sequence (E2QF15 whole entry): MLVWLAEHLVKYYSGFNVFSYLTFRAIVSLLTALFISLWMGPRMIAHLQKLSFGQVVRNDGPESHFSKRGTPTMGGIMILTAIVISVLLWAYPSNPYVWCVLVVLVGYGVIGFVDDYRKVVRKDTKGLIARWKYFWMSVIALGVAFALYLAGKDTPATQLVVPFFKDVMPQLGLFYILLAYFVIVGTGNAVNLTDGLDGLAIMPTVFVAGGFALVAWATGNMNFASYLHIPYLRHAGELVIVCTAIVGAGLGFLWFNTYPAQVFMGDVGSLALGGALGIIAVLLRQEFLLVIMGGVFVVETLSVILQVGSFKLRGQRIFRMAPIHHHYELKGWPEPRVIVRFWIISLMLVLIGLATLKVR
Kind of test: Inhibition of MraY in Escherichia coli.

The subject of test [13] is Pseudomonas aeruginosa. As to the kind of experiment: Antibacterial activity against Pseudomonas aeruginosa assessed as bacterial growth inhibition. The test is classed as functional.
The test system of test [14] is Pseudomonas aeruginosa. Kind of test: Antibacterial activity against Pseudomonas aeruginosa infected in mouse. The format is functional.

Converted amounts (≈) assume the structure as drawn.

Sequence of Phospho-N-acetylmuramoyl-pentapeptide-transferase (Bacillus subtilis (strain 168), UniProt Q03521) (Q03521 whole entry): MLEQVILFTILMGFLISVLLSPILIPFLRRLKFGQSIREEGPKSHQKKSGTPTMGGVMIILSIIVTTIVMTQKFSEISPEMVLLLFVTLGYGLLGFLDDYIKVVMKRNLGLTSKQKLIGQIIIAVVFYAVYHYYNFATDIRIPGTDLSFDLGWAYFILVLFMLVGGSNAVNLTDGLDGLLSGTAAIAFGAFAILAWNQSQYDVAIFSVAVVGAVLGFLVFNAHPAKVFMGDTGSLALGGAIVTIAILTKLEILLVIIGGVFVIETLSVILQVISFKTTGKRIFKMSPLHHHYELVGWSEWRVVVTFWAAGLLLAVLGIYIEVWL
Sequence of Phospho-N-acetylmuramoyl-pentapeptide-transferase (Bacillus subtilis (strain 168)) (Q03521 whole entry): as above
Sequence of Phospho-N-acetylmuramoyl-pentapeptide-transferase (Staphylococcus aureus, UniProt P0C1R8) (P0C1R8 whole entry): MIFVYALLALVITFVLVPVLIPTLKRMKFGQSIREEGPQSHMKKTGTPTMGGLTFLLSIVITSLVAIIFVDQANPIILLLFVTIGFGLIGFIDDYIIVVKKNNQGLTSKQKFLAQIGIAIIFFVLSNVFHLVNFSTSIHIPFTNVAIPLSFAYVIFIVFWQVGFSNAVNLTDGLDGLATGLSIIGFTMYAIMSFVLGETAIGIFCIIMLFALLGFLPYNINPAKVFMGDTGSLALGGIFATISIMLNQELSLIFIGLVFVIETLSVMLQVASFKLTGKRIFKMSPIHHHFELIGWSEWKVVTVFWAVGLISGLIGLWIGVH
Sequence of Proline--tRNA ligase (P16659 whole entry): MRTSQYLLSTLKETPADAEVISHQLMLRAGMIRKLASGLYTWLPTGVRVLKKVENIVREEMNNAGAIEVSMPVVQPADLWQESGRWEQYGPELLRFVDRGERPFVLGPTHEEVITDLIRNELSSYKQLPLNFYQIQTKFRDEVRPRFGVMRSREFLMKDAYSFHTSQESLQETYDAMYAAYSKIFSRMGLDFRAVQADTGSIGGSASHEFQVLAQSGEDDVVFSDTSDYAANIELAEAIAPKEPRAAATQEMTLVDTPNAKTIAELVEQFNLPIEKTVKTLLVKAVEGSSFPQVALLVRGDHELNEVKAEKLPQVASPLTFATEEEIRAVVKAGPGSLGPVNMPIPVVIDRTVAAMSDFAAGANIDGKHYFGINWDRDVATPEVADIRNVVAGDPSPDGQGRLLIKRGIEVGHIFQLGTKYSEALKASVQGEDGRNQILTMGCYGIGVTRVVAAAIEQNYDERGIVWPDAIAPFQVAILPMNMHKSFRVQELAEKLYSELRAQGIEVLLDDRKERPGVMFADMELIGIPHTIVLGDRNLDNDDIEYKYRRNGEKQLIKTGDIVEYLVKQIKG

On to `C[C@@H](NC(=O)NC(Cc1cccc(O)c1)C(=O)O)C(=O)N[C@H](C(=O)N/C=C1/C[C@@H](O)[C@H](n2ccc(=O)[nH]c2=O)O1)[C@H](C)N(C)C(=O)[C@@H](N)C(N)c1cccc(O)c1` (stereo partly drawn), for which, in the test on Pseudomonas aeruginosa [1], the MIC is 32 µg/mL.
For the molecule `Nc1ncnc2c1ncn2[C@@H]1O[C@H](COS(=O)(=O)NC(=O)[C@@H](N)Cc2ccc(O)cc2)[C@@H](O)[C@H]1O`, the Ki in test [2] was found to be 0.026 µM.
Consider `C[C@@H]([C@H](N)C(=O)N[C@H](C(=O)O)[C@@H]1C[C@@H](O)[C@@H](O)[C@H](n2ccc(=O)[nH]c2=O)O1)[C@H](O)c1ccc(O)cc1`, for which the MIC with Cryptococcus neoformans was 0.25 µg/mL (≈ 0.492 µM); in the test on Aspergillus niger, 0.03 µg/mL; in the test with Coccidioides immitis, 0.03 µg/mL (≈ 0.059 µM); in the test on Candida albicans [3] it was 0.03 µg/mL (≈ 0.059 µM).
For the molecule `C[C@@H](NC(=O)N[C@@H](Cc1c[nH]c2ccccc12)C(=O)O)C(=O)N[C@H](C(=O)N/C=C1/C[C@@H](O)[C@H](n2ccc(=O)[nH]c2=O)O1)[C@H](C)N(C)C(=O)[C@@H](N)CN`, it took 0.022 µM to reach half-maximal inhibition in [4] (IC50). The results for the MIC in the test with Pseudomonas aeruginosa [5], in the test on Pseudomonas aeruginosa [1] and in the test on Pseudomonas aeruginosa [6] were 16 µg/mL (≈ 22 µM), 4 µg/mL and 32 µg/mL (≈ 44 µM), respectively.
`NC[C@H]1O[C@@H](O[C@@H](c2cn(CCCCCCCCCCOc3ccc(C(=O)c4ccccc4)cc3)nn2)[C@H]2O[C@@H](n3ccc(=O)[nH]c3=O)[C@H](O)[C@@H]2O)[C@H](O)[C@@H]1O`: in the test on Staphylococcus aureus, the MIC was 8 µg/mL (≈ 10.3 µM).
`COC(=O)C1=C[C@@H](O)[C@@H](O)[C@H](O[C@@H](C(N)=O)[C@H]2O[C@@H](n3ccc(=O)[nH]c3=O)[C@H](O)[C@@H]2OC)O1` yielded an IC50 in test [7] of 0.027 µM.
Molecule `C[C@H](N)C(=O)N(C)CCOC[C@H]1O[C@@H](n2ccc(=O)[nH]c2=O)[C@H](O)[C@@H]1O` gave an inhibition in [8] of 97%.
In turn, `Nc1ncnc2c1ncn2[C@@H]1O[C@H](COS(=O)(=O)NC(=O)[C@H]2CCCN2)[C@@H](O)[C@H]1O` gave a Ki at Proline--tRNA ligase of 0.49 µM.
`C[C@H](N)C(=O)N[C@@H](C)[C@H](NC(=O)[C@H](C)NC(=O)N[C@@H](Cc1c[nH]c2ccccc12)C(=O)O)C(=O)N/C=C1\O[C@@H](n2ccc(=O)[nH]c2=O)[C@H](O)[C@@H]1O` yielded an IC50 in test [4] of 0.042 µM.
Take `CCCCCCCCCCCCCCCCC(=O)[C@H](NCCCC(=O)NCCCCNC(=N)N)[C@H](O[C@@H]1O[C@H](CN)[C@@H](O)[C@H]1O)[C@H]1O[C@@H](n2ccc(=O)[nH]c2=O)[C@H](O)[C@@H]1O`: in the test with Pseudomonas aeruginosa [9], the minimum inhibitory concentration (MIC) was found to be 4 µg/mL (≈ 4.68 µM).
Take `NC[C@H]1O[C@@H](OC[C@H]2O[C@@H](n3ccc(=O)[nH]c3=O)[C@H](OS(=O)(=O)O)C2(F)F)[C@H](O)[C@@H]1O`: the inhibition in test [10] was found to be 29%.
`Nc1nc2c(ncn2[C@@H]2O[C@H](CO)[C@@H](O)[C@H]2O)c(=O)o1`: the MIC with Escherichia coli is 12.5 µg/mL (≈ 44 µM).
Regarding `NC[C@H]1O[C@@H](O[C@@H](Cc2cn(CCCCCCCCCCc3ccccc3)nn2)[C@H]2O[C@@H](n3ccc(=O)[nH]c3=O)[C@H](O)[C@@H]2O)[C@H](O)[C@@H]1O`, in the test on Candida albicans [11], it took 20 µg/mL (≈ 29.7 µM) to inhibit growth (MIC). The molecule further had a half-maximal inhibitory concentration (IC50) in test [12] of 8 µM.
For the molecule `C[C@H](N)C(=O)N(C)[C@@H](C)[C@H](NC(=O)[C@H](C)NC(=O)N[C@@H](Cc1c[nH]c2ccccc12)C(=O)O)C(=O)N/C=C1/C[C@@H](O)[C@H](n2ccc(=O)[nH]c2=O)O1` [PACIDAMYCIN D], in the test on Pseudomonas aeruginosa [6], the MIC was determined as 32 µg/mL (≈ 45 µM).
Consider `CSCC[C@H](NC(=O)NC(Cc1cccc(O)c1)C(=O)O)C(=O)NC(CN(C)C(=O)[C@@H](N)C(N)Cc1cccc(O)c1)C(=O)N/C=C1/C[C@@H](O)[C@H](n2ccc(=O)[nH]c2=O)O1` (stereo partly drawn), for which the MIC in the test with Pseudomonas aeruginosa [13] was 1.5 µg/mL (≈ 1.75 µM). In addition, in the test with Pseudomonas aeruginosa [14], the ED50 is 0.05 mg/kg.
